Patent US20210330611A1, “THERAPY FOR NEUROLOGICAL DISEASES/DISORDERS” (priority 2020, published 2021)
Structures can show the parent of a compound that is named as a salt. Where two headings read alike, the source gives them in different places. Where no end group is shown, it is not given here.

Assays:
primary rat microglia [1] = test: Cell toxicity (dead cells, size <150 μm2) in coated fibrin (cFib) assay;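 note: share of dead cells sized under 150 µm2 at 10 µM in fibrin-stimulated microglia HTS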
primary rat microglia [2] = test: Cell toxicity (dead cells, size <150 μm2) in LPS assay
[3] = test system: LPS-induced microglia activation; test: Image-based assay of LPS-induced microglia activation (HTS and dose response); type: cell-based, rat; conditions: for inhibition at 10 µM: Rattus norvegicus, Microglia, read-out: LPS % inhibition
[4] = test system: fibrin-induced microglia activation; test: Image-based assay of fibrin-induced microglia activation (HTS and dose response); type: cell-based, rat; conditions: for inhibition at 10 µM: Rattus norvegicus, Microglia, read-out: Fibrin % inhibition
[5] = test system: fibrin- and LPS-induced microglia activation; test: cells; type: cell-based, rat
[6] = primary HTS, 10 μM, fibrin assay, dead cells size <150 μm2
[7] = primary HTS, 10 μM, LPS assay, dead cells size <150 μm2
[8] = primary HTS, 10 μM, LPS-stimulated primary microglia
[9] = primary HTS, 10 μM, fibrin-stimulated primary microglia
[10] = primary microglia HTS, fibrin stimulation, decreased size (<150 μm^2) as marker of toxicity
[11] = primary microglia HTS, LPS stimulation, decreased size (<150 μm^2) as marker of toxicity
[12] = 48 h, primary microglia HTS, LPS stimulation, increased cell size (>800 μm^2) as marker of activation
[13] = primary microglia HTS, fibrin stimulation, increased cell size (>800 μm^2) as marker of activation
[14] = quadrant by fibrin and LPS inhibition in HTS of 1907 compounds
[15] = primary microglia HTS, fibrin stimulation, toxicity = cell size <150 μm2
[16] = primary microglia HTS, LPS stimulation, toxicity = cell size <150 μm2
[17] = 48 h, primary microglia HTS, LPS stimulation, activation = cell size >800 μm2
[18] = primary microglia HTS, fibrin stimulation, activation = cell size >800 μm2
[19] = primary microglia HTS, 10 μM, fibrin assay, cell size <150 μm^2 as marker of toxicity
[20] = primary microglia HTS, 10 μM, LPS assay, cell size <150 μm^2 as marker of toxicity
[21] = primary microglia HTS, 10 μM, LPS-stimulated, cell size >800 μm^2 as marker of activation
[22] = primary microglia HTS, 10 μM, fibrin-stimulated, cell size >800 μm^2 as marker of activation
[23] = HTS of 1907 compounds, quadrant by fibrin and LPS inhibition

CN1C(=O)CC[C@H]1c1cccnc1 [Cotinine]
Fibrin % cell toxicity (primary rat microglia [1]; [6]): 1% | LPS % cell toxicity (primary rat microglia [2]; [7]): 1% | inhibition at 10 µM [3, 8]: 6% | inhibition at 10 µM [4, 9]: -39% | Quadrant (FIG. 5b) ([5]; primary HTS, 10 μM): Q4

CCN(CC)CCNC(=O)c1cc(Cl)c(N)cc1OC [Metoclopramide]
Fibrin % cell toxicity (primary rat microglia [1]; [10]): 1% | LPS % cell toxicity (primary rat microglia [2]; [11]): 0% | inhibition at 10 µM [3, 12]: 12% | inhibition at 10 µM [4, 13]: -2% | Quadrant (FIG. 5b) [5, 14]: Q4

NC(=O)c1cc[n+](CC2=C(C(=O)O)N3C(=O)[C@@H](NC(=O)[C@@H](c4ccccc4)S(=O)(=O)[O-])[C@H]3SC2)cc1 [Cefsulodin Sodium]
Fibrin % cell toxicity (primary rat microglia [1]; [6]): 0% | LPS % cell toxicity (primary rat microglia [2]; [7]): 0% | inhibition at 10 µM [3, 8]: 14% | inhibition at 10 µM [4, 9]: 3% | Quadrant (FIG. 5b) ([5]; primary HTS, 10 μM): Q4

COc1nc(N)nc2c1ncn2[C@@H]1O[C@H](CO)[C@@H](O)[C@@H]1O [Nelarabin]
Fibrin % cell toxicity (primary rat microglia [1]; [10]): 0% | LPS % cell toxicity (primary rat microglia [2]; [11]): 0% | LPS % inhibition ([3]; primary microglia HTS, LPS stimulation, increased cell size (>800 μm^2) as marker of activation): 0% | Fibrin % inhibition [4, 13]: −10% | Quadrant (FIG. 5b) [5, 14]: Q4

COP(=O)(OC)C(O)C(Cl)(Cl)Cl (stereo not shown) [Metrifonate]
Fibrin % cell toxicity (primary rat microglia [1]; [10]): 0% | LPS % cell toxicity (primary rat microglia [2]; [11]): 0% | inhibition at 10 µM [3, 12]: 8% | inhibition at 10 µM [4, 13]: -34% | Quadrant (FIG. 5b) [5, 14]: Q4

CC(C)(Oc1ccc(C(=O)c2ccc(Cl)cc2)cc1)C(=O)O [Fenofibric Acid]
Fibrin % cell toxicity (primary rat microglia [1]; [15]): 1% | LPS % cell toxicity (primary rat microglia [2]; [16]): 0% | inhibition at 10 µM [3, 17]: 9% | inhibition at 10 µM [4, 18]: 6% | Quadrant (FIG. 5b) [5, 14]: Q4

COc1ccc(C(CN(C)C)C2(O)CCCCC2)cc1 (stereo not shown) [Venlafaxine, Venlafaxine Hydrochloride]
Fibrin % cell toxicity (primary rat microglia [1]; [19]): 1% | LPS % cell toxicity (primary rat microglia [2]; [20]): 0% | LPS % inhibition [3, 21]: 20% | Fibrin % inhibition [4, 22]: 3% | Quadrant (FIG. 5b) [5, 23]: Q4

CC(=O)[C@H]1CC[C@H]2[C@@H]3C[C@H](C)C4=CC(=O)CC[C@]4(C)[C@H]3[C@@H](O)C[C@]12C [Medrysone]
Fibrin % cell toxicity (primary rat microglia [1]; [10]): 4% | LPS % cell toxicity (primary rat microglia [2]; [11]): 4% | inhibition at 10 µM [3, 12]: 87% | inhibition at 10 µM [4, 13]: 111% | Quadrant (FIG. 5b) [5, 14]: Q2

CC[C@H](c1ccc(O)cc1)[C@@H](CC)c1ccc(O)cc1 [Hexestrol]
Fibrin % cell toxicity (primary rat microglia [1]; [15]): 1% | LPS % cell toxicity (primary rat microglia [2]; [16]): 0% | inhibition at 10 µM [3, 17]: 7% | inhibition at 10 µM [4, 18]: -29% | Quadrant (FIG. 5b) [5, 14]: Q4

CC[C@@H](C(N)=O)N1CCCC1=O [Levetiracetam]
Fibrin % cell toxicity (primary rat microglia [1]; [15]): 1% | LPS % cell toxicity (primary rat microglia [2]; [16]): 0% | inhibition at 10 µM [3, 17]: 7% | inhibition at 10 µM [4, 18]: -24% | Quadrant (FIG. 5b) [5, 14]: Q4

RKDVY [Thymopentin]
Fibrin % cell toxicity (primary rat microglia [1]; [19]): 1% | LPS % cell toxicity (primary rat microglia [2]; [20]): 0% | LPS % inhibition [3, 21]: 20% | Fibrin % inhibition [4, 22]: −20% | Quadrant (FIG. 5b) [5, 23]: Q4

COC(=O)[C@@H]1[C@H]2C[C@H]3c4[nH]c5ccccc5c4CCN3C[C@@H]2CC[C@@H]1O [Yohimbine Hydrochloride]
Fibrin % cell toxicity (primary rat microglia [1]; [19]): 1% | LPS % cell toxicity (primary rat microglia [2]; [20]): 1% | LPS % inhibition [3, 21]: 19% | Fibrin % inhibition [4, 22]: −8% | Quadrant (FIG. 5b) [5, 23]: Q4

CCC(=O)O[C@@H](O[P@](=O)(CCCCc1ccccc1)CC(=O)N1C[C@H](C2CCCCC2)C[C@H]1C(=O)O)C(C)C [Fosinopril]
Fibrin % cell toxicity (primary rat microglia [1]; [15]): 1% | LPS % cell toxicity (primary rat microglia [2]; [16]): 0% | inhibition at 10 µM [3, 17]: -1% | inhibition at 10 µM [4, 18]: -52% | Quadrant (FIG. 5b) [5, 14]: Q4

COc1ccc(OC)c(C(O)C(C)N)c1 (stereo not shown) [Methoxamine]
Fibrin % cell toxicity (primary rat microglia [1]; [10]): 1% | LPS % cell toxicity (primary rat microglia [2]; [11]): 0% | inhibition at 10 µM [3, 12]: 1% | inhibition at 10 µM [4, 13]: 3% | Quadrant (FIG. 5b) [5, 14]: Q4

O=C(O)CCCc1ccccc1 [Gamma-Phenyl-Butyric Acid]
Fibrin % cell toxicity (primary rat microglia [1]; [15]): 0% | LPS % cell toxicity (primary rat microglia [2]; [16]): 0% | inhibition at 10 µM [3, 17]: 9% | inhibition at 10 µM [4, 18]: -36% | Quadrant (FIG. 5b) [5, 14]: Q4

COCCc1ccc(OCC(O)CNC(C)C)cc1 (stereo not shown) [Metoprolol]
Fibrin % cell toxicity (primary rat microglia [1]; [10]): 1% | LPS % cell toxicity (primary rat microglia [2]; [11]): 0% | inhibition at 10 µM [3, 12]: 22% | inhibition at 10 µM [4, 13]: 4% | Quadrant (FIG. 5b) [5, 14]: Q4

O=C(O)c1cccnc1Nc1cccc(C(F)(F)F)c1 [Niflumic Acid]
Fibrin % cell toxicity (primary rat microglia [1]; [10]): 1% | LPS % cell toxicity (primary rat microglia [2]; [11]): 0% | inhibition at 10 µM [3, 12]: 9% | inhibition at 10 µM [4, 13]: -14% | Quadrant (FIG. 5b) [5, 14]: Q4
